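Five concentrations, 48 hours, 96-well plates. The concentration for 50% growth inhibition is given as GI50.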 Activity calls are given as the source filed them. Cut-off read from the data, not from the text of the source: active = GI50 up to about 1.1 µM and inactive = higher.
Key:
Experiment in all cases: NCI tumour cell line growth inhibition, 48 h
HT-29 = system: HT-29
XF498 = system: XF498
UACC-257 = system: UACC-257
NCI-H23 = system: NCI-H23
SNB-19 = system: SNB-19
NCI-H460 = system: NCI-H460
KM12 = system: KM12
SNB-78 = system: SNB-78
KM-20L2 = system: KM-20L2
OVCAR-3 = system: OVCAR-3
OVCAR-5 = system: OVCAR-5
SK-OV-3 = system: SK-OV-3
DMS-273 = system: DMS-273
A549 = system: A549
M19-MEL = system: M19-MEL
HOP-92 = system: HOP-92
SK-MEL-28 = system: SK-MEL-28
NCI-H522 = system: NCI-H522
Malme-3M = system: Malme-3M
A498 = system: A498
RXF 393 = system: RXF 393
SW-620 = system: SW-620
SF-295 = system: SF-295
OVCAR-8 = system: OVCAR-8
SK-MEL-2 = system: SK-MEL-2
IGROV-1 = system: IGROV-1
LXFL 529 = system: LXFL 529
MOLT-4 = system: MOLT-4
HCT-116 = system: HCT-116
DLD-1 = system: DLD-1
SF-539 = system: SF-539
M14 = system: M14
SNB-75 = system: SNB-75
ACHN = system: ACHN
NCI-H226 = system: NCI-H226
U-251 = system: U-251
SK-MEL-5 = system: SK-MEL-5
SN12C = system: SN12C
COLO 205 = system: COLO 205
HOP-62 = system: HOP-62
HCT-15 = system: HCT-15
CAKI-1 = system: CAKI-1
UO-31 = system: UO-31
HL-60 = system: HL-60
SF-268 = system: SF-268
TK-10 = system: TK-10
RPMI-8226 = system: RPMI-8226
786-0 = system: 786-0
LOX IMVI = system: LOX IMVI
K562 = system: K562
CCRF-CEM = system: CCRF-CEM
OVCAR-4 = system: OVCAR-4
UACC-62 = system: UACC-62
DMS-114 = system: DMS-114
EKVX = system: EKVX
SR = system: SR

SMILES: CC1OC(n2ccc3ccc([N+](=O)[O-])cc32)C(O)C(O)C1O (stereo unspecified)
- GI50 (HT-29): > 100 µM (inactive)
- GI50 (XF498): > 100 µM (inactive)
- GI50 (UACC-257): > 100 µM (inactive)
- GI50 (NCI-H23): > 100 µM (inactive)
- GI50 (SNB-19): > 100 µM (inactive)
- GI50 (NCI-H460): > 100 µM (inactive)
- GI50 (KM12): > 100 µM (inactive)
- GI50 (SNB-78): > 100 µM (inactive)
- GI50 (KM-20L2): > 100 µM (inactive)
- GI50 (OVCAR-3): > 100 µM (inactive)
- GI50 (OVCAR-5): > 100 µM (inactive)
- GI50 (SK-OV-3): > 100 µM (inactive)
- GI50 (DMS-273): > 100 µM (inactive)
- GI50 (A549): > 100 µM (inactive)
- GI50 (M19-MEL): > 100 µM (inactive)
- GI50 (HOP-92): > 100 µM (inactive)
- GI50 (SK-MEL-28): > 100 µM (inactive)
- GI50 (NCI-H522): > 100 µM (inactive)
- GI50 (Malme-3M): > 100 µM (inactive)
- GI50 (A498): > 100 µM (inactive)
- GI50 (RXF 393): > 100 µM (inactive)
- GI50 (SW-620): > 100 µM (inactive)
- GI50 (SF-295): > 100 µM (inactive)
- GI50 (OVCAR-8): > 100 µM (inactive)
- GI50 (SK-MEL-2): > 100 µM (inactive)
- GI50 (IGROV-1): > 100 µM (inactive)
- GI50 (LXFL 529): > 100 µM (inactive)
- GI50 (MOLT-4): > 100 µM (inactive)
- GI50 (HCT-116): > 100 µM (inactive)
- GI50 (DLD-1): > 100 µM (inactive)
- GI50 (SF-539): > 100 µM (inactive)
- GI50 (M14): > 100 µM (inactive)
- GI50 (SNB-75): > 100 µM (inactive)
- GI50 (ACHN): > 100 µM (inactive)
- GI50 (NCI-H226): > 100 µM (inactive)
- GI50 (U-251): > 100 µM (inactive)
- GI50 (SK-MEL-5): > 100 µM (inactive)
- GI50 (SN12C): > 100 µM (inactive)
- GI50 (COLO 205): > 100 µM (inactive)
- GI50 (HOP-62): > 100 µM (inactive)
- GI50 (HCT-15): > 100 µM
- GI50 (CAKI-1): > 100 µM (inactive)
- GI50 (UO-31): > 100 µM (inactive)
- GI50 (HL-60): > 100 µM (inactive)
- GI50 (SF-268): > 100 µM (inactive)
- GI50 (TK-10): > 100 µM (inactive)
- GI50 (RPMI-8226): > 100 µM (inactive)
- GI50 (786-0): > 100 µM (inactive)
- GI50 (LOX IMVI): > 100 µM (inactive)
- GI50 (K562): > 100 µM (inactive)
- GI50 (CCRF-CEM): > 100 µM (inactive)
- GI50 (OVCAR-4): > 100 µM (inactive)
- GI50 (UACC-62): > 100 µM (inactive)
- GI50 (DMS-114): > 100 µM (inactive)
- GI50 (EKVX): > 100 µM (inactive)
- GI50 (SR): > 100 µM (inactive)

Reference: ChEMBL document CHEMBL1201862, “PubChem BioAssay data set” (2004)
